Legend:
[1] = molecular target: GDP-bound NRAS wild-type protein (Homo sapiens, UniProt P01111); assay: Binding to NRAS by surface plasmon resonance (SPR), Single Cycle Kinetics; conditions: SPR, GDP-bound NRAS wild-type protein vs GDP-bound KRAS wild-type protein
[2] = molecular target: GDP-bound HRAS wild-type protein (Homo sapiens, UniProt P01112); assay: Binding to HRAS by surface plasmon resonance (SPR), Single Cycle Kinetics; conditions: SPR, GDP-bound HRAS wild-type protein vs GDP-bound KRAS wild-type protein
GDP-bound HRAS wild-type protein, sequence (P01112 whole entry): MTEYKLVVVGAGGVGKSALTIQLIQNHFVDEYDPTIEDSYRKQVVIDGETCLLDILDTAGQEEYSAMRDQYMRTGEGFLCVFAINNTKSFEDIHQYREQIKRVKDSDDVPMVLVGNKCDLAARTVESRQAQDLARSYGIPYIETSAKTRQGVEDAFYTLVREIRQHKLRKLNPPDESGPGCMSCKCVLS

[3] = molecular target: GDP-bound KRAS wild-type protein (Homo sapiens, UniProt P01116); assay: Binding to KRAS by surface plasmon resonance (SPR), Single Cycle Kinetics; conditions: SPR, Single Cycle Kinetics, GDP-bound KRAS wild-type protein; read-out: KRAS KD
GDP-bound KRAS wild-type protein, sequence (P01116 whole entry): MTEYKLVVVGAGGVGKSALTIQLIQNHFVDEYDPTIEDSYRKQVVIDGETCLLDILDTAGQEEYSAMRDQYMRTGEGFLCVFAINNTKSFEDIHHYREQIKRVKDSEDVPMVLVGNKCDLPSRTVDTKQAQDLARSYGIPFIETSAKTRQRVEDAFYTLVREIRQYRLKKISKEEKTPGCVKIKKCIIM

GDP-bound NRAS wild-type protein, sequence (P01111 whole entry): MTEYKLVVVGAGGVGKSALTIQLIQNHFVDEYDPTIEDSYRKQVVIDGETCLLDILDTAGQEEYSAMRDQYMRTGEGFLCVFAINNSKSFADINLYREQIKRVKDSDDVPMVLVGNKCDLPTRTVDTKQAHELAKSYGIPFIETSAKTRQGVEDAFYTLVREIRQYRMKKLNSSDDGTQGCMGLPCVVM

Row | Structure (SMILES) | Kd [3] [nM] | NRAS/KRAS (ratio of KD value for NRAS to KD value for KRAS) [1] | HRAS/KRAS (ratio of KD value for HRAS to KD value for KRAS) [2]
1 | CCO[C@@H]1C[C@H]2C(=O)NC3(CC(C)(C)C3)C(=O)N(C)[C@@H](C(CC)CC)C(=O)N(C)[C@H](C(=O)N(C)C)CC(=O)N(C)[C@@H](CC3CCC3)C(=O)N[C@@H]([C@@H](C)CC)C(=O)N(C)CC(=O)N(C)[C@H]3C/C=C\CCN(C3=O)[C@@H](Cc3ccc(C)cc3)C(=O)N(C)CC(=O)N[C@@H](CCc3ccc(Cl)c(Cl)c3)C(=O)N2C1 [PP2120] | 0.91 | AA (a compound having 20 or more is denoted as AA) | A (a compound having 10 or more and less than 20 is denoted as A)
2 | CCO[C@@H]1C[C@H]2C(=O)NC3(CC(C)(C)C3)C(=O)N(C)[C@@H](C(CC)CC)C(=O)N(C)[C@H](C(=O)N(C)C)CC(=O)N(C)[C@@H](C(C)C)C(=O)N[C@@H]([C@@H](C)CC)C(=O)N(C)CC(=O)N(C)[C@H]3C/C=C\CCN(C3=O)[C@@H](Cc3ccc(C)cc3)C(=O)N(C)CC(=O)N[C@@H](CCc3ccc(Cl)c(Cl)c3)C(=O)N2C1 [PP2122] | 1.4 | AA (a compound having 20 or more is denoted as AA) | A (a compound having 10 or more and less than 20 is denoted as A)
3 | CCO[C@@H]1C[C@H]2C(=O)NC3(CC(C)(C)C3)C(=O)N(C)[C@@H](C(CC)CC)C(=O)N(C)[C@H](C(=O)N3CCCC3)CC(=O)N(C)[C@@H](COC)C(=O)N[C@@H]([C@@H](C)CC)C(=O)N(C)CC(=O)N(C)[C@H]3C/C=C\CCN(C3=O)[C@@H](Cc3ccc(C(F)(F)F)cc3)C(=O)N(C)CC(=O)N[C@@H](CCc3cc(F)c(C(F)(F)F)c(F)c3)C(=O)N2C1 [PP2123] | 0.25 | A (a compound having 10 or more and less than 20 is denoted as A) | A (a compound having 10 or more and less than 20 is denoted as A)
4 | CCO[C@@H]1C[C@H]2C(=O)NC3(CC(C)(C)C3)C(=O)N(C)[C@@H](C(CC)CC)C(=O)N(C)[C@H](C(=O)N(C)C)CC(=O)N(C)[C@@H](CC3CC3)C(=O)N[C@@H]([C@@H](C)CC)C(=O)N(C)CC(=O)N(C)[C@H]3C/C=C\CCN(C3=O)[C@@H](Cc3ccc(C(F)(F)F)cc3)C(=O)N(C)CC(=O)N[C@@H](CCc3ccc(C(F)(F)F)c(Cl)c3)C(=O)N2C1 [PP2124] | 0.26 | AA (a compound having 20 or more is denoted as AA) | A (a compound having 10 or more and less than 20 is denoted as A)
5 | CCO[C@@H]1C[C@H]2C(=O)NC3(CC(C)(C)C3)C(=O)N(C)[C@@H](C(CC)CC)C(=O)N(C)[C@H](C(=O)N(C)C)CC(=O)N(C)[C@@H](COC)C(=O)N[C@@H]([C@@H](C)CC)C(=O)N(C)CC(=O)N(C)[C@H]3C/C=C\CCN(C3=O)[C@@H](Cc3ccc(C(F)(F)F)cc3)C(=O)N(C)CC(=O)N[C@@H](CCc3ccc(C(F)(F)F)c(Cl)c3)C(=O)N2C1 [PP2126] | 0.23 | A (a compound having 10 or more and less than 20 is denoted as A) | B (a compound having 3 or more and less than 10 is denoted as B)
6 | CCO[C@@H]1C[C@H]2C(=O)NC3(CC(C)(C)C3)C(=O)N(C)[C@@H](C(CC)CC)C(=O)N(C)[C@H](C(=O)N3CCCC3)CC(=O)N(C)[C@@H](COC)C(=O)N[C@@H]([C@@H](C)CC)C(=O)N(C)CC(=O)N(C)[C@H]3C/C=C\CCN(C3=O)[C@@H](Cc3ccc(C(F)(F)F)cc3)C(=O)N(C)CC(=O)N[C@@H](CCc3ccc(C(F)(F)F)c(Cl)c3)C(=O)N2C1 [PP2128] | 0.4 | AA (a compound having 20 or more is denoted as AA) | A (a compound having 10 or more and less than 20 is denoted as A)
7 | CCO[C@@H]1C[C@H]2C(=O)NC3(CC(C)(C)C3)C(=O)N(C)[C@@H](C(CC)CC)C(=O)N(C)[C@H](C(=O)N(C)C)CC(=O)N(C)[C@@H](CC(C)C)C(=O)N[C@@H]([C@@H](C)CC)C(=O)N(C)CC(=O)N(C)[C@H]3C/C=C\CCN(C3=O)[C@@H](Cc3ccc(C(F)(F)F)cc3)C(=O)N(C)CC(=O)N[C@@H](CCc3ccc(C(F)(F)F)c(Cl)c3)C(=O)N2C1 [PP2132] | 0.27 | AA (a compound having 20 or more is denoted as AA) | A (a compound having 10 or more and less than 20 is denoted as A)
8 | CCO[C@@H]1C[C@H]2C(=O)NC3(CC(C)(C)C3)C(=O)N(C)[C@@H](C(CC)CC)C(=O)N(C)[C@H](C(=O)N(C)C)CC(=O)N(C)[C@@H](CC3CC3)C(=O)N[C@@H]([C@@H](C)CC)C(=O)N(C)CC(=O)N(C)[C@H]3C/C=C\CCN(C3=O)[C@@H](Cc3ccc(C)cc3)C(=O)N(C)CC(=O)N[C@@H](CCc3cc(F)c(C(F)(F)F)c(F)c3)C(=O)N2C1 [PP2137] | 0.37 | A (a compound having 10 or more and less than 20 is denoted as A) | A (a compound having 10 or more and less than 20 is denoted as A)
9 | CCO[C@@H]1C[C@H]2C(=O)NC3(CC(C)(C)C3)C(=O)N(C)[C@@H](C(CC)CC)C(=O)N(C)[C@H](C(=O)N(C)C)CC(=O)N(C)[C@@H](CC3CCC3)C(=O)N[C@@H]([C@@H](C)CC)C(=O)N(C)CC(=O)N(C)[C@H]3C/C=C\CCN(C3=O)[C@@H](Cc3ccc(C(F)(F)F)cc3)C(=O)N(C)CC(=O)N[C@@H](CCc3ccc(C(F)(F)F)c(Cl)c3)C(=O)N2C1 [PP2138] | 0.44 | A (a compound having 10 or more and less than 20 is denoted as A) | A (a compound having 10 or more and less than 20 is denoted as A)
10 | CCO[C@@H]1C[C@H]2C(=O)NC3(CC(C)(C)C3)C(=O)N(C)[C@@H](C(CC)CC)C(=O)N(C)[C@H](C(=O)N(C)C)CC(=O)N(C)[C@@H](C(C)C)C(=O)N[C@@H]([C@@H](C)CC)C(=O)N(C)CC(=O)N(C)[C@H]3C/C=C\CCN(C3=O)[C@@H](Cc3ccc(C(F)(F)F)cc3)C(=O)N(C)CC(=O)N[C@@H](CCc3ccc(C(F)(F)F)c(Cl)c3)C(=O)N2C1 [PP2140] | 0.7 | AA (a compound having 20 or more is denoted as AA) | A (a compound having 10 or more and less than 20 is denoted as A)

Further lines, with some results ahead:

Row | Kd [3] [nM] | Structure (SMILES) | NRAS/KRAS (ratio of KD value for NRAS to KD value for KRAS) [1] | HRAS/KRAS (ratio of KD value for HRAS to KD value for KRAS) [2]
11 | 1.5 | CCO[C@@H]1C[C@H]2C(=O)NC3(CC(C)(C)C3)C(=O)N(C)[C@@H](C(CC)CC)C(=O)N(C)[C@H](C(=O)N(C)C)CC(=O)N(C)[C@@H](COC)C(=O)N[C@@H]([C@@H](C)CC)C(=O)N(C)CC(=O)N(C)[C@H]3C/C=C\CCN(C3=O)[C@@H](Cc3ccc(C(F)(F)F)cc3)C(=O)N(C)CC(=O)N[C@@H](CCc3cc(F)c(C(F)(F)F)c(F)c3)C(=O)N2C1 [PP2121] | AA (a compound having 20 or more is denoted as AA) | A (a compound having 10 or more and less than 20 is denoted as A)
12 | 0.22 | CCC[C@H]1C(=O)N[C@@H]([C@@H](C)CC)C(=O)N(C)CC(=O)N(C)[C@H]2C/C=C\CCN(C2=O)[C@@H](Cc2ccc(C(F)(F)F)cc2)C(=O)N(C)CC(=O)N[C@@H](CCc2cc(F)c(C(F)(F)F)c(F)c2)C(=O)N2C[C@H](OCC)C[C@H]2C(=O)NC2(CC(C)(C)C2)C(=O)N(C)[C@@H](C(CC)CC)C(=O)N(C)[C@H](C(=O)N(C)C)CC(=O)N1C [PP2125] | AA (a compound having 20 or more is denoted as AA) | A (a compound having 10 or more and less than 20 is denoted as A)
13 | 0.18 | CCO[C@@H]1C[C@H]2C(=O)NC3(CC(C)(C)C3)C(=O)N(C)[C@@H](C(CC)CC)C(=O)N(C)[C@H](C(=O)N(C)C)CC(=O)N(C)[C@@H](CC(C)C)C(=O)N[C@@H]([C@@H](C)CC)C(=O)N(C)CC(=O)N(C)[C@H]3C/C=C\CCN(C3=O)[C@@H](Cc3ccc(C(F)(F)F)cc3)C(=O)N(C)CC(=O)N[C@@H](CCc3cc(F)c(C(F)(F)F)c(F)c3)C(=O)N2C1 [PP2127] | AA (a compound having 20 or more is denoted as AA) | A (a compound having 10 or more and less than 20 is denoted as A)
14 | 0.19 | CCO[C@@H]1C[C@H]2C(=O)NC3(CC(C)(C)C3)C(=O)N(C)[C@@H](C(CC)CC)C(=O)N(C)[C@H](C(=O)N(C)C)CC(=O)N(C)[C@@H](CC3CCC3)C(=O)N[C@@H]([C@@H](C)CC)C(=O)N(C)CC(=O)N(C)[C@H]3C/C=C\CCN(C3=O)[C@@H](Cc3ccc(C(F)(F)F)cc3)C(=O)N(C)CC(=O)N[C@@H](CCc3cc(F)c(C(F)(F)F)c(F)c3)C(=O)N2C1 [PP2133] | AA (a compound having 20 or more is denoted as AA) | A (a compound having 10 or more and less than 20 is denoted as A)
15 | 0.49 | CCO[C@@H]1C[C@H]2C(=O)NC3(CC(C)(C)C3)C(=O)N(C)[C@@H](C(CC)CC)C(=O)N(C)[C@H](C(=O)N(C)C)CC(=O)N(C)[C@@H](C(C)C)C(=O)N[C@@H]([C@@H](C)CC)C(=O)N(C)CC(=O)N(C)[C@H]3C/C=C\CCN(C3=O)[C@@H](Cc3ccc(C(F)(F)F)cc3)C(=O)N(C)CC(=O)N[C@@H](CCc3cc(F)c(C(F)(F)F)c(F)c3)C(=O)N2C1 [PP2135] | AA (a compound having 20 or more is denoted as AA) | A (a compound having 10 or more and less than 20 is denoted as A)
16 | 0.31 | CCO[C@@H]1C[C@H]2C(=O)NC3(CC(C)(C)C3)C(=O)N(C)[C@@H](C(CC)CC)C(=O)N(C)[C@H](C(=O)N(C)C)CC(=O)N(C)[C@@H](C)C(=O)N[C@@H]([C@@H](C)CC)C(=O)N(C)CC(=O)N(C)[C@H]3C/C=C\CCN(C3=O)[C@@H](Cc3ccc(C)cc3)C(=O)N(C)CC(=O)N[C@@H](CCc3cc(F)c(C(F)(F)F)c(F)c3)C(=O)N2C1 [PP2143] | A (a compound having 10 or more and less than 20 is denoted as A) | A (a compound having 10 or more and less than 20 is denoted as A)
